Test results reported in US6492382B1, “Dried or frozen pharmaceutical preparation containing a class III antiarrhythmic compound” (AstraZeneca AB, priority 1998, dated 2002).
Entries after “also recorded” stand apart in the source; their conditions may differ.

Key:
[1] = stability in water solution; type: physicochemical; settings: decomposition especially at a low pH
[2] = solubility in water; type: physicochemical
[3] = administered intravenously to a human patient; average; cited from earlier work

## CC(C)(C)OC(=O)N1CC2CC(CN(C[C@H](O)COc3ccc(C#N)cc3)C2)C1 [Compound A, 3,7-diazabicyclo[3.3.1]-nonane-3-carboxylic acid, 7-[(2S)-3-(4-cyanophenoxy)-2-hydroxypropyl]-1,1-dimethylethyl ester]
[1]
  stability in water solutions: unstable in water solutions; also recorded: decomposition in water solution
[2]
  solubility in water: poorly soluble in water; also recorded: low water solubility

## CCCCCCCN(CC)CCCC(O)c1ccc(NS(C)(=O)=O)cc1 (stereo not drawn) [ibutilide]
[3]
  half-life of elimination: around 6 hours
